Measurements reported in paper PMC8434204, “Discrimination of Methionine Sulfoxide and Sulfone by Human Neutrophil Elastase” (Molecules, 2021).
Where two headings read alike, the source gives them in different places. Square brackets hold non-standard residues; d marks the D form. Peptide text beside a SMILES is read from it. * marks the point of attachment. Met(O2) = CS(=O)(=O)CC[C@H](N)C(=O)O; Met(O) = CS(=O)CC[C@H](N)C(=O)O; pNA = O=[N+]([O-])c1ccc(N*)cc1; MeOSuc = COC(=O)CCC(=O)*

Legend:
[1] = target: T1, Human neutrophil elastase (HNE) (Homo sapiens, UniProt P08246); assay: Kinetic assays of synthesized pNA substrates (Michaelis-Menten); type: biochemical
T1 construct: HNE purified from purulent human sputum (Elastin Products Company, Owensville, MO, USA); purchased Elastin Products Company, Owensville, MO, USA; host or cells: purulent human sputum (natural source)
T1 sequence (P08246 30-247 limits assumed): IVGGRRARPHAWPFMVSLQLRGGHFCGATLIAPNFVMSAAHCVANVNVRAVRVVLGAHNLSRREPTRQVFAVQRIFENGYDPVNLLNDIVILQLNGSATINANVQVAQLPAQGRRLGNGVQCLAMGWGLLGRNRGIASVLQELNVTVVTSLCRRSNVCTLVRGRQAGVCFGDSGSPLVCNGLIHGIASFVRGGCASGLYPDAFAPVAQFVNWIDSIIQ
Description: Figure 2 Substrate concentration versus velocity plot of candidate pNA substrates containing a P1 valine residue (A), or a P1 alanine residue (B), assayed against 3 nM active HNE. […] Data points represent the average rate observed from three replicate experiments of triplicate measurements. […] Error bars show SEM. Where not visible, error bars are smaller than the pictured data point.
(§1) For substrate library kinetic assay screen, reactions were initiated by addition of HNE purified from purulent human sputum (Elastin Products Company, Owensville, MO, USA) to triplicate microplate wells containing each substrate, and the rate of reaction determined spectrophotometrically at 405 nm. Final concentrations were 300 µM substrates and 1 µg/mL HNE in 250 µL assay buffer (100 mM Tris pH 8, 50 mM NaCl, 10% DMF, 0.05% Triton X-100). For in-depth assays of candidate substrates and inhibitors, the active site concentration of HNE was first determined by titration with A1AT. Briefly, 250 nM A1AT was serially diluted in a 96-well microplate to provide a final assay volume of 250 µL. A total of 2.5 µL of HNE stock solution (100 µg/mL) was added to each well and complex formation was allowed to proceed over a period of 20 min at RT. Assays were initiated by addition of Ac-RM(O2)PA-pNA substrate, monitoring the evolution of free para-nitroanilide at 405 nm for 90 s again at RT. Kinetic assays of synthesized pNA substrates were carried out similarly omitting the A1AT and serially diluting the substrates, KM and Vmax values were determined by GraphPad Prism 5.01 (La Jolla, CA, USA) Michaelis–Menten non-linear regression. Assays with peptide aldehyde inhibitors were carried out as with the active site titration. Inhibition constants were calculated in GraphPad Prism by non-linear regression using the Morrison equation for tight-binding inhibitors.

[2] = target: T1, Human neutrophil elastase (HNE); conditions: literature value; read-out: KM, previously published value; cited from earlier work
Excerpt: The standard substrate MeOSuc-AAPV-pNA was also synthesised to provide a benchmark against other studies. […] Acetylated forms of the P4 arginine substrates were synthesised to assess the effect of a charged N-termin ...

[3] = target: T1, Human neutrophil elastase (HNE); assay: Inhibition of HNE proteolysis by peptide aldehyde inhibitors; type: biochemical; conditions: for Ki: 10 nM active HNE, 100 nM Ac-RM(O2)AA-pNA substrate (Figure 3), 20 min complex formation at RT, 405 nm, Morrison equation for tight-binding inhibitors, three replicate experiments of triplicate measurements; for Relative Potency (fold inhibition enhancement relative to Ac-RMAV-H): ratio of Ki values relative to non-oxidised Ac-RMAV-H
Description: Figure 3 Dose-response plot of Ac-RMAV-H peptide aldehyde inhibitor variants containing differing oxidation states of the P3 methionine residue. All assays contained 10 nM active HNE and 100 nM Ac-RM(O2)AA-pNA substrate. Data are reported as percent activity remaining compared to uninhibited controls, and data points represent the mean observed from three replicate experiments of triplicate measurements. Error bars show SEM. Where not visible, error bars are smaller than the pictured data point.
as §1

Row | Molecule | kcat ([1]; 3 nM active HNE (purified from purulent human sputum), 100 mM Tris pH 8, 50 mM NaCl, 10% DMF, 0.05% Triton X-100, RT, 405 nm, Michaelis-Menten non-linear regression, three replicate experiments of triplicate measurements) | Km ([1]; 3 nM active HNE, 100 mM Tris pH 8, 50 mM NaCl, 10% DMF, 0.05% Triton X-100, RT, 405 nm, Michaelis-Menten non-linear regression, ± SEM) | kcat/KM ([1]; catalytic efficiency calculated from kcat and KM, 3 nM active HNE) | Km [2] | Ki [3] | Relative Potency (fold inhibition enhancement relative to Ac-RMAV-H) [3]
1 | MeOSuc-AAPV-pNA (SMILES COC(=O)CCC(=O)N[C@@H](C)C(=O)N[C@@H](C)C(=O)N1CCC[C@H]1C(=O)N[C@H](C(=O)Nc1ccc([N+](=O)[O-])cc1)C(C)C) [standard HNE substrate synthesised as benchmark against other studies] | 2.90 s⁻¹ | 153 ± 17.6 µM | 18900 M⁻¹ s⁻¹ | 140 µM | – | –
2 | CC(=O)N[C@@H](CCCNC(=N)N)C(=O)N[C@@H](CCS(C)(=O)=O)C(=O)N[C@@H](C)C(=O)N[C@H](C=O)C(C)C [Ac-RM(O2)AV-H] (Ac-R[Met(O2)]AV-aldehyde) | – | – | – | – | 0.147 µM | 49.4
3 | CC(=O)N[C@@H](CCCNC(=N)N)C(=O)N[C@@H](CC[S+](C)[O-])C(=O)N[C@@H](C)C(=O)N[C@H](C=O)C(C)C (stereo partly shown) [Ac-RM(O)AV-H] (Ac-R[Met(O)]AV-aldehyde) | – | – | – | – | 5.55 µM | 1.3
4 | CSCC[C@H](NC(=O)[C@H](CCCNC(=N)N)NC(C)=O)C(=O)N[C@@H](C)C(=O)N[C@H](C=O)C(C)C [Ac-RMAV-H] (Ac-RMAV-aldehyde) | – | – | – | – | 7.27 µM | 1
